According to paper PMC9011347, “Small-Molecule Inhibitors Targeting Lipolysis in Human Adipocytes” (Journal of the American Chemical Society, 2022):
Where two headings read alike, the source gives them in different places.

What was measured:
[1] = target: T1, human ATGL (aa 1–288) (Homo sapiens, UniProt Q96AD5); assay: TAG hydrolase assay, wild-type and chimeric ATGL variants in Expi293 lysates; assay type: biochemical
T1 construct: human ATGL (aa 1–288); host or cells: Expi293 cells, crude lysate
Source text: Since experimental three-dimensional (3D) structures for ATGL are currently not available, we utilized chimeric variants of mouse and human ATGL for the identification of binding sites. The constructs c1–c9 (Figure 5a) comprised the N-terminal […] of ATGL, which are sufficient to retain enzymatic activity.[50] In variants c1 and c2, exchange of the N-terminal 158 aa between human and mouse ATGL switched inhibitor reactivity.
(§1) Figure 5 Analysis of chimeric proteins comprising human and mouse ATGL. (a) Schematic view of the minimal active domain of wild-type and chimeric ATGL variants (c1–c9). Nonidentical aa are indicated in blue and red for mouse and human ATGL, respectively. ATGL variants were expressed in Expi293 cells and TAG hydrolase activity was determined in cell lysates in the presence or absence of NG-497 (10 μM) and Atglistatin (10 μM), respectively. Inhibition of ATGL variants by respective inhibitors (tick mark) and lack of inhibition (cross) is indicated at the right edge. The expression of all ATGL variants was confirmed by Western blotting analysis (Figure S6). […]
(§2) Expression of recombinant ATGL constructs and preparation of cell lysates. […] Protein concentrations were determined using Bio-Rad protein assay (Bio-Rad 785, Bio-Rad Laboratories, Munich, Germany) using BSA as standard. […]

[2] = target: T2, c9 (mouse ATGL with humanized T101, C106, R109, N111, S133) (Mus musculus, UniProt Q8BJ56, C106S/N111S/R109H/S133N/T101V); assay: TAG hydrolase assay, chimeric ATGL variants; assay type: biochemical, human and mouse; conditions: variant c9, NG-497 (10 μM) or Atglistatin (10 μM)
T2 construct: host or cells: Expi293 cells, cell lysate
Experimental: as §1, with “S6). (b) Dose-dependent inhibition of human ATGL (aa 1–288) and c1 (human aa 1–158 and mouse aa 159–288) by NG-497. (c) Dose-dependent inhibition of mouse ATGL (aa 1–288) and c2 (mouse aa 1–158 and human aa 159–288) by Ai. IC50 values are shown in the insets. Data are presented as relative inhibition of respective DMSO controls and are indicated as mean ± SD. (d) 3D homology model of the minimal active domain of mouse ATGL (M1–L254) depicted as a cartoon. Residues 1–178 are in blue, and residues 179–254 are in gray.” for “S6).”
as §2

T1 sequence (Q96AD5 1-288): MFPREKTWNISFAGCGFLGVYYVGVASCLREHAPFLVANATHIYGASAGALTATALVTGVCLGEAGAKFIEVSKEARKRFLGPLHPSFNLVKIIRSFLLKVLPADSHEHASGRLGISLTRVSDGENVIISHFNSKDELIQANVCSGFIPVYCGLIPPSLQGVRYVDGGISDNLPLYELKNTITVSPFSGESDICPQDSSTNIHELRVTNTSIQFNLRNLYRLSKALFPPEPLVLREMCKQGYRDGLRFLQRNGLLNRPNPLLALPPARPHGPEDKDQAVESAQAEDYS
T2 sequence (Q8BJ56 1-288 T101V/C106S/R109H/N111S/S133N limits assumed): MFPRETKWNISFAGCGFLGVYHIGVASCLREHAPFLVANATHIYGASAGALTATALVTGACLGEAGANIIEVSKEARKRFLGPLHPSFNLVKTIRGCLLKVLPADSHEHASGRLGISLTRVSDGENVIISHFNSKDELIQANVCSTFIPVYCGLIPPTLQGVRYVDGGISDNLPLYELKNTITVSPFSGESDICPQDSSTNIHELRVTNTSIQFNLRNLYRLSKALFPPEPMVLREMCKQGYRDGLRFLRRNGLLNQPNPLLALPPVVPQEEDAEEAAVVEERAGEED

Structure (SMILES) | IC50 [1] | inhibition of TAG hydrolase activity [2] | IC50 ([1]; read-out: IC50) [nM]
CN(C)C(=O)Nc1cccc(-c2ccc(N(C)C)cc2)c1 [Atglistatin, reference compound] | ineffective | preserved Ai binding | –
CCOc1ccc(-c2cc(OC)cc(C(=O)OC(C)C)n2)cc1 [NG-497] | – | ineffective | 1300
